According to patent US9278942B2, “Non-steroidal compounds as androgen receptor modulators” (FLX Discoveries Oy, priority 2011, dated 2016):

What was measured:
human AR [1] = target: T1, human AR (Homo sapiens, UniProt P10275); assay: AR antagonism assay: inhibition of transcriptional activation of AR (Probasin-luc reporter, COS-1 cells); assay type: cell-based; details: compound 10.0 μM, relative luciferase response: 100% for testosterone (no antiandrogenic effect), 0% for complete antagonism; for remaining activity at 10 µM: COS-1, 18 h, read-out: AR antagonism against 100 nM testosterone ± S.D.
T1 construct: expressed in transfected cells; host or cells: COS-1
T1 sequence (P10275 1-920): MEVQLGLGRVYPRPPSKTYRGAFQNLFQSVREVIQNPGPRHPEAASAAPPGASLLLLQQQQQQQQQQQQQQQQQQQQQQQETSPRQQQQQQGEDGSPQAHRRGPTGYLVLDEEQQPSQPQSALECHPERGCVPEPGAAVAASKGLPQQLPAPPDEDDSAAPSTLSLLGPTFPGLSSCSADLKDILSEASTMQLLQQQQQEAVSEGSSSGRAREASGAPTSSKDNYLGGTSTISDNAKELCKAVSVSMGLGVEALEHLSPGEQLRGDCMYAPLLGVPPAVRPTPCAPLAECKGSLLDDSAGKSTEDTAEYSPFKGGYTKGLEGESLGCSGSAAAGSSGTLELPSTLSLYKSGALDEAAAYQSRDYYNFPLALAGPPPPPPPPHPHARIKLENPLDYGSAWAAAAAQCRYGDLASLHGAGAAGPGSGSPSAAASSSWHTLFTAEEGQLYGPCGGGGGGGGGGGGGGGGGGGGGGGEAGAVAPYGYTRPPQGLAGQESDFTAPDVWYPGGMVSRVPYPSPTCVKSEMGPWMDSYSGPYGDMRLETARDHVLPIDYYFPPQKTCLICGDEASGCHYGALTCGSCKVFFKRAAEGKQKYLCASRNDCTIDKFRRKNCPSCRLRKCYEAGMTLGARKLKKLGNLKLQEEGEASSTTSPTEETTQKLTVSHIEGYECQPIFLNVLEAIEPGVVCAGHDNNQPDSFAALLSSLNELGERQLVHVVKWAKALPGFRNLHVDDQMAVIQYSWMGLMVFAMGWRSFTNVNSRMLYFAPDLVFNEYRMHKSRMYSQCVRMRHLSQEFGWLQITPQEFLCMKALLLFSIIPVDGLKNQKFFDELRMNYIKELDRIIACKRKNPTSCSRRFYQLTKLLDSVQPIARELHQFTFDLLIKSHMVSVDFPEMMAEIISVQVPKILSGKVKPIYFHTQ
Procedure: Determination of the Antiandrogen Activity.
Testosterone was bought from Sigma Chemical Co. (St. Louis, Mo.) and hydroxyflutamide from Chemos GmbH. One day before transfection, COS-1 cells (from ATCC) were seeded into 1 ml of DMEM (Dulbecco's modified Eagle medium, Gibco) with 10% dextran-charcoal-treated fetal bovine serum and 0.25% (vol/vol) Penicillin-Streptomycin (Euroclone) at a density of 70×10^3 cells/well. After medium change to DMEM 2.5% FBS, the cells were transfected for 24 hours with 10 ng/well of human AR expression vector pSG5-hAR, 100 ng/well of reporter plasmid Probasin-luc, and 10 ng/well of control plasmid pCMV-β-gal by using the TransIT method (Micrus Bio TransIT LT1, Transfection Reagent). After the transfection, the cells received treatment of test compounds giving final concentration of 10 μM for each compound. In the antagonist test the wells were also treated with 100 nM final concentration of testosterone. After 18 hours, the cells were washed, lysed and assayed for luciferase and normalization for β-galactosidase activities and protein concentrations. The cells were washed with 100 μl of cold phosphate buffered saline (PBS) and lysed with 35 μl 1× Reporter lysis Buffer (Promega) and frozen (−70° C.) for 30 minutes. Cell lysates were placed in 1.5-ml propylene tubes and centrifuged at 13200×g for 5 minutes at room temperature. For β-galactosidase assay 10 μl of supernatant from each cell extract was transferred to a 96-well plate (96 well Elisa Microplates, PS, Microcon) and incubated for 10 minutes at 37° C. with 65 μl of reaction mixture consisting 0.76 μl 100×Mg-buffer, 12.5 μl ONPG (4 mg/ml), and 54.3 μl of sodium-phosphate buffer (pH 7). The reaction was stopped with treatment of 125 μl Na2CO3. For luciferase assay 10 μl of the supernatant was transferred to a 96-well plate (Greiner Microlon lumitrac 200) and treated with 30 μl of luciferase assay substrate solution (Promega Luciferase Assay System E1501). For the study of protein concentrations 5 μl of the supernatant was transferred to a 96-well plate (Elisa Microplates, PS, Microcon) and mixed with 200 μl of Bio-rad protein assay reagent. The luciferase activities were measured with Thermo Luminoscan Ascent scanner and the protein concentrations and β-galactosidase activities with Thermo Labsystem Multiscan Ex scanner. Also blank and control samples were measured. During the maintenance, transfection, and treatment with tested compounds the cells were incubated in humidified atmosphere with 5% carbon dioxide at 37° C.

human AR [2] = target: T1, human AR; assay: Competitive AR binding assay against [3H]-R1881 in transiently transfected COS-1 cells; details: compound 13.4 μM, [3H]-R1881 1.34 nM, complete inhibition equals 100%; for inhibition at 13.4 µM: read-out: Inhibition of [3H]-R1881 binding at 1.34 nM ± S.D.
Procedure: Competitive AR Binding Assay.
AR binding was measured by a competitive assay against [^3H]-R1881 (PerkinElmer) in transiently transfected COS-1 cells. One day before transfection, COS-1 cells were seeded into 2 ml of DMEM (Dulbecco's modified Eagle medium, Gipco) with 10% dextran-charcoal-treated fetal bovine serum and 0.25% (vol/vol) Penicillin-Streptomysin (Euroclone) at a density of 140×10^3 cells/well. After medium change to DMEM 2.5% FBS, the cells were transfected for 24 hours with 10 ng/well of human AR expression vector pSG5 hAR by using the TransIT method (Micrus Bio TransIT LT1, Transfection Reagent). After 36 hours, the cells where treated with tested compounds using 10000 fold molarities compared to labelled R1881 (1.34 nM). After 2 hours of incubation at 37° C., the medium was removed. The cells were removed from the wells to 150 μl of 1× phosphate buffered saline (PBS), transferred to Eppendorf tubes and centrifuged at 4° C. using 4000×g for 5 min, and then washed twice with 150 μl of PBS. The cell pellets were dissolved to 50 μl of 0.5M NaOH and incubated for 15 min at 56° C., after which the samples (three replicates for each sample compound) were transferred to liquid twinkle tubes with 3 ml of OptiPhase HiSafe 3 twinkle solution (PerkinElmer) and radioactivity of AR-bound [^3H]-R1881 determined. The results were measured with LKB WALLAC 1214 racbeta equipment. The ability of test compounds to bind AR is reported as reduction in bound radioactivity obtained with 1.34 nM [^3H]-R1881.
The results (% inhibition) were calculated as: % inhibition=100−[100×(averagecompound/average[3H]-R1881)].

Compound | AR antagonism against 100 nM testosterone ± S.D. (human AR [1]) [%] | inhibition at 13.4 µM (human AR [2]; Table 1) [%] | further results
O=[N+]([O-])c1ccc(C2=NOC3CCCC23)cc1C(F)(F)F (single isomer, unassigned) [Example 21a, 3-(4-Nitro-3-trifluoromethyl-phenyl)-4,5,6,6a-tetrahydro-3aH-cyclopenta[d]isoxazole] | – | – | remaining activity at 10 µM (human AR [1]): 19.2 ± 6.8%; Inhibition of [3H]-R1881 binding at 1.34 nM ± S.D. (human AR [2]; Table 3): 69.7 ± 4.5%
O=[N+]([O-])c1ccc(C2=NOC3CCCC23)cc1C(F)(F)F (single isomer, unassigned) [Example 21b, 3-(4-Nitro-3-trifluoromethyl-phenyl)-4,5,6,6a-tetrahydro-3aH-cyclopenta[d]isoxazole] | 22.9 ± 4.9 | – | Inhibition of [3H]-R1881 binding at 1.34 nM ± S.D. (human AR [2]; Table 3): 90.9 ± 0.9%
Clc1ccc(C2=NOC3CCCCC23)cc1 (single isomer, unassigned) [Example 32a, 3-(4-Chloro-phenyl)-3a,4,5,6,7,7a-hexahydro-benzo[d]-isoxazole] | 40.9 ± 2.4 | – | Inhibition of [3H]-R1881 binding at 1.34 nM ± S.D. (human AR [2]; Table 1): 30.5 ± 5.4%
Clc1ccc(C2=NOC3CCCCC23)cc1 (single isomer, unassigned) [Example 32b, 3-(4-Chloro-phenyl)-3a,4,5,6,7,7a-hexahydro-benzo[d]-isoxazole] | 91.4 ± 7.7 | – | Inhibition of [3H]-R1881 binding at 1.34 nM ± S.D. (human AR [2]; Table 1): 0%
c1ccc2c(C3=NOC4CCCCC34)cccc2c1 (single isomer, unassigned) [Example 33a, 3-Naphthalen-1-yl-3a,4,5,6,7,7a-hexahydro-benzo[d]-isoxazole] | 40.2 ± 7.1 | 68.4 ± 1.9 | –
c1ccc2c(C3=NOC4CCCCC34)cccc2c1 (single isomer, unassigned) [Example 33b, 3-Naphthalen-1-yl-3a,4,5,6,7,7a-hexahydro-benzo[d]-isoxazole] | 100 | – | Inhibition of [3H]-R1881 binding at 1.34 nM ± S.D. (human AR [2]; Table 1): 56.9 ± 4.4%
O=[N+]([O-])c1ccc(C2=NOC3CCCCC23)c(C(F)(F)F)c1 (single isomer, unassigned) [Example 38a, 3-(4-Nitro-2-trifluoromethyl-phenyl)-3a,4,5,6,7,7a-hexahydro-benzo-[d]-isoxazole] | 2.9 ± 0.5 | 94.5 ± 0.5 | –
O=[N+]([O-])c1ccc(C2=NOC3CCCCC23)c(C(F)(F)F)c1 (single isomer, unassigned) [Example 38b, 3-(4-Nitro-2-trifluoromethyl-phenyl)-3a,4,5,6,7,7a-hexahydro-benzo-[d]-isoxazole] | 75.9 ± 3.7 | – | Inhibition of [3H]-R1881 binding at 1.34 nM ± S.D. (human AR [2]; Table 1): 90.7 ± 0.5%
COc1ccccc1C1=NOC2CCCCC12 (stereo not drawn) [Example 23ab, 3-(2-Methoxy-phenyl)-3a,4,5,6,7,7a-hexahydro-benzo[d]isoxazole] | – | – | remaining activity at 10 µM (human AR [1]): 40.9 ± 2.4%
Oc1ccc(C2=NOC3CCCCC23)cc1 (stereo not drawn) [Example 26a, 4-(3a,4,5,6,7,7a-Hexahydro-benzo[d]isoxazol-3-yl)-phenol] | – | – | remaining activity at 10 µM (human AR [1]): 25.7 ± 5.5%
Oc1ccc(C2=NOC3CCCCC23)cc1 (stereo not drawn) [Example 26b, 4-(3a,4,5,6,7,7a-Hexahydro-benzo[d]isoxazol-3-yl)-phenol] | 41.0 ± 1.6 | – | –
O=[N+]([O-])c1ccc(C2=NOC3CCCCC23)cc1 (stereo not drawn) [Example 34ab, 3-(4-Nitro-phenyl)-3a,4,5,6,7,7a-hexahydro-benzo[d]-isoxazole] | – | – | remaining activity at 10 µM (human AR [1]): 48 ± 6.7%
CCCCN1C(Cc2ccccc2)=NOC1(C)Cc1ccccc1 (stereo not drawn) [Example 55a, 3,5-Dibenzyl-4-butyl-5-methyl-4,5-dihydro-[1,2,4]oxadiazole] | – | 35.1 ± 5.8 | –
CCCCN1C(Cc2ccccc2)=NOC1(C)Cc1ccccc1 (stereo not drawn) [Example 55b, 3,5-Dibenzyl-4-butyl-5-methyl-4,5-dihydro-[1,2,4]oxadiazole] | – | – | Inhibition of [3H]-R1881 binding at 1.34 nM ± S.D. (human AR [2]; Table 1): 32.7 ± 3.5%
CCCCN1C(CCc2ccccc2)=NOC1(C)Cc1ccccc1 (stereo not drawn) [Example 57ab, 5-Benzyl-4-butyl-5-methyl-3-phenethyl-4,5-dihydro-[1,2,4]oxadiazole] | – | 48.7 ± 3.3 | –
CCCCN1C(CCc2ccc(OC)cc2)=NOC1(C)Cc1ccccc1 (stereo not drawn) [Example 58ab, 5-Benzyl-4-butyl-3-[2-(4-methoxy-phenyl)-ethyl]-5-methyl-4,5-dihydro-[1,2,4]oxadiazole] | – | 8.2 ± 1.3 | –
CCCCN1C(CCCc2ccccc2)=NOC1(C)Cc1ccccc1 (stereo not drawn) [Example 59ab, 5-Benzyl-4-butyl-5-methyl-3-(3-phenyl-propyl)-4,5-dihydro-[1,2,4]oxadiazole] | – | 39.1 ± 2.6 | –
CC(C)CN1C(CCc2ccccc2)=NOC1(C)Cc1ccccc1 (stereo not drawn) [Example 66ab, 5-Benzyl-4-isobutyl-5-methyl-3-phenethyl-4,5-dihydro-[1,2,4]oxadiazole] | – | 17.8 ± 2.4 | –
CC(C)CN1C(CCCc2ccccc2)=NOC1(C)Cc1ccccc1 (stereo not drawn) [Example 68ab, 5-Benzyl-4-isobutyl-5-methyl-3-(3-phenyl-propyl)-4,5-dihydro-[1,2,4]oxadiazole] | – | 14.7 ± 1 | –
